ChEMBL document CHEMBL1201862, “PubChem BioAssay data set” (2004)
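A five-concentration, 48-hour dose response in 96-well plates underlies each endpoint, interpolated linearly between surrounding concentrations. GI50 marks 50% less growth.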 Calls of active or inactive are those of the source. Cut-off read from the data, not from the text of the source: active = GI50 up to about 1.1 µM and inactive = higher.

Tests used:
Experiment in all cases: NCI anticancer screen, dose series, 48 h
786-0 = tested on: 786-0
A498 = tested on: A498
BT-549 = tested on: BT-549
CAKI-1 = tested on: CAKI-1
COLO 205 = tested on: COLO 205
DU-145 = tested on: DU-145
KM12 = tested on: KM12
LOX IMVI = tested on: LOX IMVI
NCI-H522 = tested on: NCI-H522
NCI/ADR-RES = tested on: NCI/ADR-RES
OVCAR-4 = tested on: OVCAR-4
OVCAR-8 = tested on: OVCAR-8
PC-3 = tested on: PC-3
RXF 393 = tested on: RXF 393
SK-OV-3 = tested on: SK-OV-3
SN12C = tested on: SN12C
SR = tested on: SR
TK-10 = tested on: TK-10
SNB-75 = tested on: SNB-75

Measured: GI50

Nc1nc(-c2cc(-c3cccc4ccccc34)nc(N)n2)cc(-c2cccc3ccccc23)n1
inactive: 786-0 > 100 µM | A498 > 100 µM | BT-549 > 100 µM | CAKI-1 > 100 µM | COLO 205 > 100 µM | DU-145 > 100 µM | KM12 > 100 µM | LOX IMVI > 100 µM | NCI-H522 > 100 µM | NCI/ADR-RES > 100 µM | OVCAR-4 > 100 µM | OVCAR-8 > 100 µM | PC-3 > 100 µM | RXF 393 > 100 µM | SK-OV-3 > 100 µM | SN12C > 100 µM | SR > 100 µM | TK-10 > 100 µM

COc1cc2c(C)cc(O)cc2c2cc(O)c(C)cc12
inactive: 786-0 8.43 µM | A498 11.2 µM | BT-549 12.7 µM | CAKI-1 11.7 µM | COLO 205 9.91 µM | DU-145 10.9 µM | KM12 5.24 µM | LOX IMVI 2.23 µM | NCI-H522 13.7 µM | NCI/ADR-RES 13.5 µM | OVCAR-4 11.3 µM | OVCAR-8 14.4 µM | PC-3 9.57 µM | RXF 393 12.4 µM | SK-OV-3 12.9 µM | SN12C 9.84 µM | SR 1.53 µM | TK-10 13.3 µM

COC(=O)c1cc(NC(=O)Cn2c3ccccc3c3ccccc32)cn1C
inactive: 786-0 29.7 µM | A498 > 100 µM | BT-549 24.9 µM | CAKI-1 84.5 µM | COLO 205 45 µM | DU-145 > 100 µM | KM12 38.2 µM | LOX IMVI 53.3 µM | NCI-H522 28.3 µM | NCI/ADR-RES 30.3 µM | OVCAR-4 17.3 µM | OVCAR-8 30.1 µM | PC-3 31 µM | RXF 393 39.1 µM | SK-OV-3 25.6 µM | SN12C 55.3 µM | SR 49.5 µM | TK-10 49.7 µM

COc1cc(C2c3c(ccc4ccccc34)C(=O)C3CCC(=O)N32)cc(OC)c1O (centres undefined)
inactive: 786-0 > 25 µM | A498 > 25 µM | BT-549 > 25 µM | COLO 205 > 25 µM | DU-145 > 25 µM | KM12 > 25 µM | NCI/ADR-RES > 25 µM | OVCAR-4 > 25 µM | OVCAR-8 > 25 µM | PC-3 > 25 µM | RXF 393 > 25 µM | SK-OV-3 > 25 µM | SN12C > 25 µM | SNB-75 > 25 µM | SR > 25 µM

COc1ccc2c(c1)CC[C@@H]1[C@@H]2CC[C@]2(C)C(=O)/C(=C/c3ccc(OC)c(OC)c3)C[C@@H]12
inactive: 786-0 > 100 µM | A498 > 100 µM | BT-549 > 100 µM | CAKI-1 > 100 µM | DU-145 > 100 µM | KM12 > 100 µM | NCI/ADR-RES > 100 µM | OVCAR-4 > 100 µM | PC-3 > 100 µM | RXF 393 > 100 µM | SK-OV-3 > 100 µM | SNB-75 > 100 µM | SR 5.07 µM | TK-10 > 100 µM

N=C(N)NC(=N)Nc1c(F)c(F)c(F)c(F)c1F
inactive: 786-0 > 100 µM | A498 > 100 µM | BT-549 92.3 µM | CAKI-1 > 100 µM | COLO 205 54 µM | DU-145 > 100 µM | KM12 > 100 µM | NCI-H522 93.8 µM | NCI/ADR-RES > 100 µM | OVCAR-4 > 100 µM | OVCAR-8 > 100 µM | PC-3 97.9 µM | RXF 393 > 100 µM | SK-OV-3 > 100 µM | SN12C > 100 µM | SNB-75 > 100 µM | SR 17.3 µM | TK-10 95.9 µM

O=C1C(=Cc2ccccc2[N+](=O)[O-])N=C(c2ccccc2)N1n1c(-c2ccccc2)nc2ccccc2c1=O
inactive: 786-0 38 µM | BT-549 41.8 µM | CAKI-1 39.1 µM | COLO 205 31.3 µM | DU-145 33.5 µM | KM12 26.9 µM | LOX IMVI 29.4 µM | NCI-H522 17 µM | NCI/ADR-RES 23.2 µM | OVCAR-4 33.4 µM | OVCAR-8 24.7 µM | PC-3 27.3 µM | RXF 393 16.1 µM | SK-OV-3 40.7 µM | SN12C 23 µM | SNB-75 35.6 µM | SR 37.7 µM | TK-10 > 100 µM

CC(C)(Cl)C(Br)CC/C(=C/CCl)CBr.CC(C)(Cl)C(Br)CC/C(=C\CCl)CBr (centres undefined)
inactive: 786-0 1.86 µM | A498 4.94 µM | BT-549 3.05 µM | COLO 205 2.4 µM | DU-145 3.32 µM | KM12 1.83 µM | NCI/ADR-RES 3.23 µM | OVCAR-4 2.34 µM | OVCAR-8 2.06 µM | PC-3 2.61 µM | RXF 393 2.62 µM | SK-OV-3 16.9 µM | SN12C 2.49 µM | SNB-75 2.9 µM | SR 1.29 µM | TK-10 2.26 µM
active: NCI-H522 0.998 µM

CC(=O)Oc1cc(C)c(OC(C)=O)c2c1[C@H]1CC[C@]3(C)[C@@H](OC(C)=O)CC[C@H]3[C@@H]1CC2
inactive: 786-0 21.8 µM | A498 18.7 µM | BT-549 15.9 µM | CAKI-1 17.5 µM | DU-145 16.6 µM | KM12 15.3 µM | LOX IMVI 15.8 µM | NCI-H522 16.9 µM | NCI/ADR-RES 18.2 µM | OVCAR-8 20.5 µM | PC-3 13.9 µM | RXF 393 16.8 µM | SN12C 16.7 µM | SNB-75 26.6 µM | SR 29.8 µM | TK-10 16.1 µM

CC[C@@]1(O)C(=O)OCc2c1cc1n(c2=O)Cc2c-1nc1ccccc1c2/C=N\NC(=O)C(C)N (some centres undefined)
active: 786-0 0.069 µM | A498 0.111 µM | BT-549 0.303 µM | CAKI-1 0.071 µM | DU-145 0.0401 µM | LOX IMVI 0.0254 µM | NCI-H522 0.432 µM | NCI/ADR-RES 0.241 µM | OVCAR-8 0.0923 µM | RXF 393 1.04 µM | SN12C < 0.01 µM | SNB-75 < 0.0298 µM | SR < 0.01 µM
inactive: COLO 205 7.11 µM | KM12 5.36 µM | OVCAR-4 7.1 µM | PC-3 1.91 µM | TK-10 > 29.3 µM

CC1(C)OC2C(CO)OC(n3ccc(=O)[nH]c3=O)C2O1 (centres undefined)
inactive: 786-0 > 100 µM | A498 > 100 µM | BT-549 > 100 µM | CAKI-1 > 100 µM | COLO 205 > 100 µM | DU-145 > 100 µM | LOX IMVI > 100 µM | NCI-H522 > 100 µM | NCI/ADR-RES > 100 µM | OVCAR-8 > 100 µM | PC-3 > 100 µM | RXF 393 > 100 µM | SK-OV-3 > 100 µM | SN12C > 100 µM | SR > 100 µM | TK-10 > 100 µM

Cn1c(-c2ccccc2)cc(-c2ccc3c(c2)OCO3)c1-c1cccs1
inactive: 786-0 > 100 µM | A498 > 100 µM | BT-549 > 100 µM | COLO 205 > 100 µM | DU-145 > 100 µM | KM12 > 100 µM | LOX IMVI > 100 µM | NCI/ADR-RES > 100 µM | OVCAR-4 > 100 µM | OVCAR-8 > 100 µM | PC-3 > 100 µM | RXF 393 > 100 µM | SK-OV-3 > 100 µM | SN12C > 100 µM | SNB-75 > 100 µM | SR > 100 µM | TK-10 > 100 µM

CC(C)(Oc1ccc(Cl)cc1)C(=O)N(C(=O)N1CCC(c2ccccc2)CC1)c1ccccc1
inactive: 786-0 > 100 µM | A498 > 82.8 µM | BT-549 23.4 µM | CAKI-1 46 µM | COLO 205 10 µM | DU-145 > 100 µM | KM12 15.5 µM | LOX IMVI 22.9 µM | NCI/ADR-RES > 29.6 µM | OVCAR-4 > 100 µM | OVCAR-8 8.47 µM | PC-3 5.51 µM | RXF 393 13.6 µM | SK-OV-3 99.8 µM | SN12C 27.4 µM | SNB-75 > 26.1 µM | SR > 100 µM | TK-10 > 30.1 µM

O=C(O)C(C1NCCS1)N1Cc2ccccc2C1 (centres undefined)
inactive: 786-0 > 100 µM | A498 > 100 µM | BT-549 > 100 µM | CAKI-1 > 100 µM | COLO 205 > 100 µM | DU-145 > 100 µM | KM12 > 100 µM | LOX IMVI > 100 µM | NCI/ADR-RES > 100 µM | OVCAR-4 > 100 µM | OVCAR-8 > 100 µM | PC-3 > 100 µM | RXF 393 > 100 µM | SK-OV-3 > 100 µM | SN12C > 100 µM | SNB-75 > 100 µM | SR > 100 µM | TK-10 > 100 µM

COc1ccc2[nH]c3c(c2c1)CC(=O)N1CCC[C@H](C1)CC31OCCCO1
inactive: 786-0 > 100 µM | A498 > 100 µM | BT-549 > 100 µM | CAKI-1 > 100 µM | COLO 205 > 100 µM | DU-145 > 100 µM | KM12 > 100 µM | NCI/ADR-RES > 100 µM | OVCAR-4 > 100 µM | OVCAR-8 > 100 µM | PC-3 > 100 µM | RXF 393 44.5 µM | SK-OV-3 > 100 µM | SN12C > 100 µM | SNB-75 86.9 µM | SR > 100 µM | TK-10 > 100 µM

CC(C)=NOC(=O)OC[C@H]1O[C@@H](n2cnc3c(N)ncnc32)C(O)C1O (some centres undefined)
inactive: 786-0 70 µM | A498 > 100 µM | BT-549 > 100 µM | COLO 205 > 100 µM | DU-145 > 100 µM | KM12 > 100 µM | LOX IMVI 44.9 µM | NCI-H522 > 100 µM | NCI/ADR-RES > 100 µM | OVCAR-4 > 100 µM | OVCAR-8 > 100 µM | PC-3 > 100 µM | RXF 393 > 100 µM | SK-OV-3 > 100 µM | SN12C > 100 µM | SNB-75 > 100 µM | SR > 100 µM | TK-10 > 100 µM
